Consider 17 molecules from patent US11759462B2, “Spirocyclic compounds as tryptophan hydroxylase inhibitors” (priority 2013, dated 2023).

This assay addresses T1, Recombinant human TPH1 (MBP tagged) (Homo sapiens, UniProt P17752).
T1 construct: cloning full length human TPH1 cDNA in to a bacterial pMAL-c5E expression vector; made in house; host or cells: E. coli BL21 (DE3)
T1 sequence (P17752 1-444): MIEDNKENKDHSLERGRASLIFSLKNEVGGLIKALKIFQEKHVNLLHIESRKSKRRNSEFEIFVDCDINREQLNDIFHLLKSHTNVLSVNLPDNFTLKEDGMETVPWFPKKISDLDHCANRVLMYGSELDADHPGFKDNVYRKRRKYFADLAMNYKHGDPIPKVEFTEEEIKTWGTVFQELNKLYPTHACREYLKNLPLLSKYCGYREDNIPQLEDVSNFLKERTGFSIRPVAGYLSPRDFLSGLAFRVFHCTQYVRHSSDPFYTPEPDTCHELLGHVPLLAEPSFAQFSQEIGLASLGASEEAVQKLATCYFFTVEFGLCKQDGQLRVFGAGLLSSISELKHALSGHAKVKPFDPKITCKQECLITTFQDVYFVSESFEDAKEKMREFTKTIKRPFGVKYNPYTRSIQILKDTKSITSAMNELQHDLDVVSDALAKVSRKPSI
Put plainly: TPH1 in vitro inhibition assay (kinetic fluorescence). Type of assay: biochemical. The conditions noted are these: read-out: TPH1 Range (TPH1 inhibition IC50). The procedure, abridged: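 Final mix: 15 nM MBP-TPH1, 30 μM Trp, 36 μM 6-methyltetrahydropterin, 25 μM ferrous ammonium sulfate, 50 mM MES pH 7.1, 1% DMSO, room temperature.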
In general, IC50 refers to the midpoint of a concentration-inhibition curve. Regarding `Cc1ccn(-c2cc(Cl)ccc2[C@@H](Oc2cnnc(N3CCC4(CC3)CN[C@H](C(=O)O)C4)c2)C(F)(F)F)n1` [Example 43, (S)-8-(5-((R)-1-(4-chloro-2-(3-methyl-H-pyrazol-1-yl)phenyl)-2,2,2-trifluoroethoxy)pyridazin-3-yl)-2,8-diazaspiro[4.5]decane-3-carboxylic acid], the half-maximal inhibitory concentration (IC50) lay within 3000 to 10000 nM. `Cc1ccn(-c2ccccc2[C@@H](Oc2ccnc(N3CCC4(CC3)CN[C@H](C(=O)O)C4)c2)C(F)(F)F)n1` [Example 44, (S)-8-(4-((R)-2,2,2-trifluoro-1-(2-(3-methyl-1H-pyrazol-1-yl)phenyl)ethoxy)pyridin-2-yl)-2,8-diazaspiro[4.5]decane-3-carboxylic acid]: the IC50 was 300 to 3000 nM. With `Cc1ccn(-c2cc(Cl)ccc2[C@@H](Oc2ccnc(N3CCC4(CC3)CN[C@H](C(=O)O)C4)c2)C(F)(F)F)n1` [Example 45, (S)-8-(4-((R)-1-(4-chloro-2-(3-methyl-H-pyrazol-1-yl)phenyl)-2,2,2-trifluoroethoxy)pyridin-2-yl)-2,8-diazaspiro[4.5]decane-3-carboxylic acid] the figure was 50 to 300 nM; with `Cc1ccn(-c2cc(Cl)ccc2[C@@H](Oc2cc(Oc3ccccc3)nc(N3CCC4(CC3)CNC(C(=O)O)C4)n2)C(F)(F)F)n1` (stereo partly drawn) [Example 46, 8-(4-((R)-1-(4-chloro-2-(3-methyl-H-pyrazol-1-yl)phenyl)-2,2,2-trifluoroethoxy)-6-phenoxypyrimidin-2-yl)-2,8-diazaspiro[4.5]decane-3-carboxylic acid], 3000 to 10000 nM. With `Nc1nc(OC(c2c(Br)cccc2Br)C(F)(F)F)cc(N2CCC3(CC2)CN[C@H](C(=O)O)C3)n1` (stereo partly drawn) [Example 47, (3S)-8-(2-Amino-6-(1-(2,6-dibromophenyl)-2,2,2-trifluoroethoxy)pyrimidin-4-yl)-2,8-diazaspiro[4.5]decane-3-carboxylic acid] the figure was 300 to 3000 nM.

As for `Nc1nc(O[C@H](c2cc(Br)ccc2Br)C(F)(F)F)cc(N2CCC3(CC2)CN[C@H](C(=O)O)C3)n1` [Example 48, (S)-8-(2-Amino-6-((R)-1-(2,5-dibromophenyl)-2,2,2-trifluoroethoxy)pyrimidin-4-yl)-2,8-diazaspiro[4.5]decane-3-carboxylic acid], the IC50 is 300 to 3000 nM.

For `CCCc1ccc(-c2cccc(S(C)(=O)=O)c2)c([C@@H](Oc2cc(N3CCC4(CC3)CN[C@H](C(=O)O)C4)nc(N)n2)C(F)(F)F)c1` [Example 49, (S)-8-(2-Amino-6-((R)-2,2,2-trifluoro-1-(3′-(methylsulfonyl)-4-propyl-[1,1′-biphenyl]-2-yl)ethoxy)pyrimidin-4-yl)-2,8-diazaspiro[4.5]decane-3-carboxylic acid], the IC50 is less than 50 nM. For `C/C=C/c1ccc(-c2cccc(S(C)(=O)=O)c2)c([C@@H](Oc2cc(N3CCC4(CC3)CN[C@H](C(=O)O)C4)nc(N)n2)C(F)(F)F)c1` [Example 50, (S)-8-(2-Amino-6-((R)-2,2,2-trifluoro-1-(3′-(methylsulfonyl)-4-((E)-prop-1-en-1-yl)-[1,1′-biphenyl]-2-yl)ethoxy)pyrimidin-4-yl)-2,8-diazaspiro[4.5]decane-3-carboxylic acid], the IC50 was in the range of 50 to 300 nM. As to `Cc1ccc(-c2ccc([C@@H](Oc3cc(N4CCC5(CC4)CN[C@H](C(=O)O)C5)nc(N)n3)C(F)(F)F)c(-c3cccc(S(C)(=O)=O)c3)c2)cc1C` [Example 52a, (S)-8-(2-Amino-6-((R)-1-(3,4-dimethyl-3″-(methylsulfonyl)-[1,1′:3′,1″-terphenyl]-4′-yl)-2,2,2-trifluoroethoxy)pyrimidin-4-yl)-2,8-diazaspiro[4.5]decane-3-carboxylic acid], the concentration for half-maximal inhibition (IC50) is less than 50 nM.

With `CS(=O)(=O)c1cccc(-c2cc(-c3ccc4ncccc4c3)ccc2[C@@H](Oc2cc(N3CCC4(CC3)CN[C@H](C(=O)O)C4)nc(N)n2)C(F)(F)F)c1` [Example 52b, (S)-8-(2-amino-6-((R)-2,2,2-trifluoro-1-(3′-(methylsulfonyl)-5-(quinolin-6-yl)-[1,1′-biphenyl]-2-yl)ethoxy)pyrimidin-4-yl)-2,8-diazaspiro[4.5]decane-3-carboxylic acid], the IC50 was less than 50 nM. Regarding `C/C=C/c1ccc([C@@H](Oc2cc(N3CCC4(CC3)CN[C@H](C(=O)O)C4)nc(N)n2)C(F)(F)F)c(-c2cccc(S(C)(=O)=O)c2)c1` [Example 53, (S)-8-(2-Amino-6-((R)-2,2,2-trifluoro-1-(3′-(methylsulfonyl)-5-((E)-prop-1-en-1-yl)-[1,1′-biphenyl]-2-yl)ethoxy)pyrimidin-4-yl)-2,8-diazaspiro[4.5]decane-3-carboxylic acid], the IC50 is less than 50 nM.

Take `CCCc1ccc([C@@H](Oc2cc(N3CCC4(CC3)CN[C@H](C(=O)O)C4)nc(N)n2)C(F)(F)F)c(-c2cccc(S(C)(=O)=O)c2)c1` [Example 54a, (S)-8-(2-Amino-6-((R)-2,2,2-trifluoro-1-(3′-(methylsulfonyl)-5-propyl-[1,1′-biphenyl]-2-yl)ethoxy)pyrimidin-4-yl)-2,8-diazaspiro[4.5]decane-3-carboxylic acid]: the IC50 is less than 50 nM.

Regarding `CC(C)Oc1ccc(-c2ccc([C@@H](Oc3cc(N4CCC5(CC4)CN[C@H](C(=O)O)C5)nc(N)n3)C(F)(F)F)c(-c3ccccc3)c2)cc1` [Example 54b, (S)-8-(2-amino-6-((R)-2,2,2-trifluoro-1-(4-isopropoxy-[1,1′:3′,1″-terphenyl]-4′-yl)ethoxy)pyrimidin-4-yl)-2,8-diazaspiro[4.5]decane-3-carboxylic acid], the IC50 lay in the range of 50 to 300 nM.

As for `CCCOc1ccc(-c2ccc([C@@H](Oc3cc(N4CCC5(CC4)CN[C@H](C(=O)O)C5)nc(N)n3)C(F)(F)F)c(-c3ccccc3)c2)cc1` [Example 54c, (S)-8-(2-amino-6-((R)-2,2,2-trifluoro-1-(4-propoxy-[1,1′:3′,1″-terphenyl]-4′-yl)ethoxy)pyrimidin-4-yl)-2,8-diazaspiro[4.5]decane-3-carboxylic acid], the IC50 was less than 50 nM. Consider `CS(=O)(=O)c1ccc([C@@H](Oc2cc(N3CCC4(CC3)CN[C@H](C(=O)O)C4)nc(N)n2)C(F)(F)F)c(-c2ccccc2)c1` [Example 54d, (S)-8-(2-amino-6-((R)-2,2,2-trifluoro-1-(5-(methylsulfonyl)-[1,1′-biphenyl]-2-yl)ethoxy)pyrimidin-4-yl)-2,8-diazaspiro[4.5]decane-3-carboxylic acid], for which the IC50 was in the range of 50 to 300 nM.

For the molecule `CCCOc1ccc(-c2ccc([C@@H](Oc3cc(N4CCC5(CC4)CN[C@H](C(=O)O)C5)nc(N)n3)C(F)(F)F)c(-c3ccccc3)c2)cc1F` [Example 54e, (S)-8-(2-amino-6-((R)-2,2,2-trifluoro-1-(3-fluoro-4-propoxy-[1,1′:3′,1″-terphenyl]-4′-yl)ethoxy)pyrimidin-4-yl)-2,8-diazaspiro[4.5]decane-3-carboxylic acid], the IC50 fell in the range of 50 to 300 nM. As to `Cc1ccc(-c2ccc([C@@H](Oc3cc(N4CCC5(CC4)CN[C@H](C(=O)O)C5)nc(N)n3)C(F)(F)F)c(-c3ccccc3)c2)cc1C` [Example 54f, (S)-8-(2-amino-6-((R)-1-(3,4-dimethyl-[1,1′:3′,1″-terphenyl]-4′-yl)-2,2,2-trifluoroethoxy)pyrimidin-4-yl)-2,8-diazaspiro[4.5]decane-3-carboxylic acid], the concentration for half-maximal inhibition (IC50) was less than 50 nM.
